“Also recorded” adds a separate entry of the source.
How the values were obtained:
[1] = tested on: LS-180 cells; experiment: MTT cell proliferation assay; assay type: cell-based, human
Method: (§1) Cell proliferation was assessed using a standard MTT (3,(4,5-dimethylthiazol-2yl)2,5-diphenyltetrazolium bromide; Sigma, St. Louis, Mo.) dye at 570 nm. Cells were into seeded in 96-well microtiter plates (2×10^5 cells/well) using 200 μl of medium. After a 12 hour incubation, Taurolidine was applied for a period of 6, 9, 12, 24 or 48 hours. At each time point 20 μl of MTT (5 mg/ml) was added and the cells were incubated at 37° C. for an additional 30 minutes. The medium was removed and the dye was eluted using acidic isopropyl alcohol (0.04N HCl). Cell viability was measured using crystal violet dye. Cells were seeded and treated with Taurolidine as described for the MTT assay. The medium was then removed and the cells were stained and fixed using a crystal violet staining solution containing 0.75% Crystal violet, 50% EtOH, 0.25% NaCl, and 1.75% formaldehyde for 10 minutes at room temperature. After staining and fixation the cells were rinsed with water and air-dried. The crystal violet dye was eluted using a 1% SDS in PBS solution and the absorbance was measured at 540 nm in a microtiter plate reader.
(§2) The human LS-180 colon cancer cell line was incubated with 25, 50, 75, and 100 μm concentrations of Taurolidine, and an MTT assay was performed at 6, 9, 12, 24 and 48 hours after Taurolidine administration. An accompanying crystal violet assay was performed under the same conditions. […] Flow cytometry was also performed using bromodeoxyuridine (BrdU) to help quantify the proportion of cells in S phase and evaluate cell proliferation.

[2] = tested on: LS-180 cells; experiment: Crystal violet cell viability / adherent cell assay; assay type: cell-based, human
Method: as §1, §2

[3] = Lactate dehydrogenase (LDH) release cytotoxicity assay; assay type: cell-based, human; conditions: human, LS-180 cells
Method: (§3) Cytotoxicity was quantified using a standard lactate dehydrogenase cytotoxicity assay (Cytotoxicity Detection Kit, Roche). LS-180 cells (2.5×10^5 cell/well) were cultured in Falcon 96-well microtiter plates in a humidified incubator at 37° C., 5% CO2. […] Triton X-100 (1% final concentration) was used to lyse cells and determine the maximum release of LDH enzyme (high control). Cytotoxicity was determined as per the manufacturer's protocol, and the absorbance was measured at 490 nm in a microtiter plate reader.
(§4) Cytotoxicity was assessed by measuring lactate dehyhdrogenase (LDH) activity released from the cytosol of damaged cells. […] Taurolidine, even at a 400 μm concentration, produced minimal cytotoxic effects on LS-180 cells. […] This is in contradistinction to previously reported in vitro studies of Taurolidine on malignant cell lines.

[4] = tested on: LS-180 cells; experiment: as above; assay type: cell-based, human; conditions: 100, 200 and 400 μM, 24 hours
Method: as §3, §4

[5] = tested on: LS-180 cells; experiment: Flow cytometry (propidium iodide / BrdU) cell cycle and DNA content analysis; assay type: cell-based, human
Method: FIGS. 4A–D are histograms showing that Taurolidine induces apoptosis in human colon cancer cells. In FIGS. 4A–C, LS-180 cells were treated with 100, 200, and 400 μM concentrations of Taurolidine. After 24 hours the cells were harvested by trypsinization, labeled with propidium iodide, and their DNA content was measured by flow cytometry. The percentage of subdiploid DNA content, representing DNA degradation in apoptotic cells, is shown. […] LS-180 cells were treated with 100, 200, and 400 -μM concentrations of Taurolidine and harvested by trypsinization at 12, 24, and 36 hours. Caspase-3 activity was assessed by its ability to cleave the DEVD-pNA colorimetric substrate.
LS-180 cells were cultured in 100 mm Falcon plates (5×10^6 cells/plate) for 12 hours to become adherent. Cells were incubated for 12, 14 and 48 hours with complete medium (control) or 50, 100 and […] concentrations of Taurolidine. The cells were then treated with 10 μm bromodeoxyuridine (BrdU) for 30 minutes, and both floating and adherent cells were harvested for fixation in 70% ethanol. The DNA was denatured using 2N HCl and labeled with FITC-conjugated anti-BrdU antibody (anti-bromodeoxyuridine-fluorescein monoclonal antibody; Roche, Indianapolis, Ind.). Before analysis by flow cytometry the cells were treated with ribonuclease (Dnase-free ribonuclease, Roche, Indianapolis, Ind.) and propidium iodide (Sigma, St. Louis, Mo.). FACs analysis was performed on a FACscan flow cytometer (Becton Dickinson, N.J.).

[6] = tested on: caspase-3; experiment: Caspase-3 colorimetric assay (DEVD-pNA substrate); assay type: cell-based, human
Method: To measure caspase activity, cells were incubated in six-well Falcon plates (1×10^6 cells/well) and harvested by trypsinization. The cells were then pelleted and lysed as per the manufacturer's recommendation (MBL, Nagoya, Japan) and the cytosolic protein concentration was quantified using a BCA protein assay reagent (Pierce, Rockford, Ill.). The caspase-3 assay was performed in a 96-well microtiter plate using 100 μg of protein and 5 μl of 4 mM DEVD-pNA Substrate (CPP32/caspase-3 Colorimetric Protease Assay Kit; MBL, Nagoya, Japan). The protein and reagent were then incubated for 2 hours at 37° C. A background reading from cell lysates and buffer without DEVD-pNA substrate was subtracted from samples; the assay was performed in triplicate. Samples were read at 405 nm in a microtiter plate reader.
Caspase Inhibitor I (Z-VAD-fink; z-Val-Ala-Asp(OMe)-CH2F, Calbiochem; La Jolla, Calif.) was used from a 21 mM stock in DMSO stored at −20° C. until use and then diluted into tissue culture medium immediately prior to its application. After a 2-hour incubation with the caspase inhibitor, cells were treated with Taurolidine. […] Untreated cells received an equivalent dilution of DMSO.

[7] = tested on: LS-180 cells; experiment: Light microscopy / Hoechst 33258 staining for apoptotic morphology; assay type: cell-based, human; conditions: even at 400 μm; light microscopy or Hoechst 33258
[8] = tested on: LS-180 hepatic metastases; experiment: Liver metastases model: splenic injection of LS-180 cells in nude mice, IP treatment; assay type: in vivo; conditions: for Serum CEA: mean ± SE, n = 20, after 3 weeks IP Taurolidine; for reduction in serum CEA levels vs control: 3 weeks IP therapy; for reduction in liver weight vs control: daily IP, 5 days/week, 3 weeks
Method: General anesthesia was induced using 400 μl choral hydrate (2%). Using sterile conditions, a vertical paramedian incision was used to expose the spleen. An intrasplenic injection of 1×10^5 tumor cells in 0.4 ml of serum free medium was performed, followed by splenectomy using hemoclips for vascular control. The incision was then closed using surgical staples. Beginning post injections days 2 or 5, mice received IP injections of 0.45% normal saline (n=10 per group) or Taurolidine (n=20 per group). Taurolidine (Boehringer Ingelheim, Germany) was given as a daily 0.5 ml IP injection of 2% solution ([…]) for 5 consecutive days per week for a total of 3 weeks. The day following the last treatment of Taurolidine or 0.45% NS, the mice were sacrificed and examined for gross tumor. Blood was drawn from the right ventricle, immediately centrifuged, and serum collected for CEA assays. The livers were weighed and fixed in HistoFix and representative sections taken for H&E microscopic examination. In addition, 9 mice (n=3 per group) were used to study the tumor model. At days 5, 10 and 15, mice that received a splenic tumor cell injection without any further intervention were sacrificed to assess tumor burden at varying time points. The livers were assessed for gross tumor and submitted in toto for histologic examination.

[9] = tested on: LS-180 cells; experiment: WST-8 tetrazolium cell number assay; conditions: dose-dependent; concentration not given
[10] = dose-dependent, concentration not given
[11] = treatment begun 2 days after splenic tumor injection
[12] = treatment begun 5 days after splenic tumor injection

O=S1(=O)CCN(CN2CCS(=O)(=O)NC2)CN1 [Taurolidine, bis(1,1-dioxoperhydro-1,2,4-thiadiazinyl-4)methane]
decrease by MTT assay ([1]; 100 μm Taurolidine, present as early as 9 hours after exposure): 40–50% | reduction in cell number (MTT assay) ([1]; 100 μm, after 24 hours): 40–50% | decrease in adherent tumor cells (MTT assay) [1, 10]: 60% | cell adherence (crystal violet assay) ([2]; 10-400 μM Taurolidine): loss of cell adherence | reduction in cell number (crystal violet assay) ([2]; 100 μm, after 24 hours): 40–50% | decrease in adherent tumor cells (crystal violet assay) [2, 10]: 60% | decrease in tumor cell viability (crystal violet assay) [2, 10]: 85% | cytotoxicity ([3]; 50, 100 and 400 μm, 12 or 24 hours, read-out: percent cytotoxicity (LDH release), all cases): < 2% | cytotoxicity at 24 h, 50 µM ([3]; 50 μm, 24 hours, read-out: percent cytotoxicity (LDH release)): -0.07% | cytotoxicity at 24 h, 100 µM ([3]; 100 μm, 24 hours, read-out: percent cytotoxicity (LDH release)): 0.15% | cytotoxicity at 24 h, 400 µM ([3]; 400 μm, 24 hours, read-out: percent cytotoxicity (LDH release)): 1.58% | cytolysis (culture medium LDH activity) [4]: no significant cytolysis | sub-G1 peak by propidium iodide flow cytometry ([5]; 50 and 100 μm, 24 hours): failed to demonstrate a sub-GI peak; also recorded: failed to demonstrate a sub-G1 peak | sub-diploid DNA peak (DNA degradation in apoptotic cells) ([5]; 100, 200 and 400 μM, 24 hours): dose dependent increase | cell cycle progression / proliferation (flow cytometry, BrdU) ([5]; treated vs untreated cells, 50 and 100 μm): no significant change in cell cycle progression; also recorded: no significant change in proliferation or cell cycle | caspase-3 activity ([6]; 100, 200 and 400 μM, 12, 24 and 36 hours): dose-dependent increase; also recorded: dose dependent increase | apoptotic morphology [7]: failed to demonstrate cell shrinkage, cytoplasmic condensation, nuclear fragmentation or blebbing | tolerability / deaths during therapy ([8]; 10-mg per day IP, five consecutive days x 3 weeks): well tolerated, resulting in no deaths of animals; also recorded: all mice tolerated the full 3-week course of treatment | Serum CEA ([8]; Day 2 group): 7.73 ± 0.52 ng/mL | Serum CEA ([8]; Day 5 group): 11.88 ± 1.97 ng/mL | gross hepatic tumor burden vs control ([8]; daily IP Taurolidine for 3 weeks, begun day 2 or 5): dramatic reduction in hepatic tumor involvement; also recorded: dramatic reduction of tumor burden; also recorded: striking decrease in tumor burden; also recorded: marked reduction in tumor burden; also recorded: marked decrease in tumor burden | reduction in serum CEA levels vs control [8, 11]: 69% | reduction in liver weight vs control [8, 11]: 18% | reduction in serum CEA levels vs control [8, 12]: 78% | reduction in liver weight vs control [8, 12]: 22% | decrease in tumor cell viability (WST-8 assay) [9]: 85%

z-Val-Ala-Asp(OMe)-CH2F [Z-VAD-fmk]
loss of cell adherence of Taurolidine-treated cells after caspase inhibition (crystal violet) ([2]; 50-uM Z-VAD-fmk before Taurolidine): not affected | caspase-3 activity in Taurolidine-treated cells after caspase inhibition ([6]; 50 μM Z-VAD-fmk before 100, 200, 400 μM Taurolidine, vs untreated LS-180 cells): no significant increase in caspase-3 activity

Reference: patent publication US7122541B2, “Methods of inhibiting metastases” (Rhode Island Hospital, priority 2001, dated 2006)
